Assay results published in ChEMBL document CHEMBL5385892, “Advances in the development of phosphodiesterase-4 inhibitors” (Eur J Med Chem, 2023).

Legend:
Phosphodiesterase 3 = Phosphodiesterase 3 (Homo sapiens, UniProt Q14432+Q13370); assay: Inhibition of PDE3 (unknown origin); format: protein assay
[1] = molecular target: T1, Phosphodiesterase isozyme 4 (Homo sapiens, UniProt Q86V67); assay: Inhibition of PDE4 (unknown origin)
T1 sequence (Q86V67 whole entry): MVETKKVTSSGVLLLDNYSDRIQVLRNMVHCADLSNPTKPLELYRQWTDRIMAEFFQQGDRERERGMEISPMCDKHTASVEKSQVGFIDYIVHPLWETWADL

SMILES	IC50 (Phosphodiesterase 3)	IC50 [1]
O=C(Cc1c(Cl)c[n+]([O-])cc1Cl)c1ccc(OC(F)F)c2c1OC1(CCS(=O)(=O)CC1)O2 [ORISMILAST]	0.4 nM	1480 nM
COc1ccc(C2=NN(CCCCCc3ccccc3)C(=O)CC2)cc1OC	–	0.9 nM
CCOc1cc(C(CS(C)(=O)=O)N2C(=O)c3csc(NC(C)=O)c3C2=O)ccc1OC (stereo not given)	–	26 nM
CNc1nc(-c2cccc(NC(=O)c3ccc(C(=O)OC)cc3)c2)c2cc(OC)c(OC)cc2n1 [LOTAMILAST]	–	2.8 nM
